Values of other authors in US20210388441A1, “PREDICTING CHRONIC ALLOGRAFT INJURY THROUGH ISCHEMIA-INDUCED DNA METHYLATION” (VIB VZW, priority 2017, published 2021).

Test system: macrophage infiltration in kidneys
Conditions: through a decrease of macrophage infiltration in for instance kidneys

Structure (SMILES): CC(=O)C(C)CCC(=O)O (stereo not shown) [ERG240]
- inflammation: reduced inflammation
